Test results reported in ChEMBL document CHEMBL1129775, “Synthesis and evaluation of novel 1,5-Benzodiazepines as potent and selective CCK-B ligands. Effect of the substitution of the N-5 phenyl with alkyl groups” (Bioorg Med Chem Lett, 1996).

What was measured:
[1] = target: T1, Cholecystokinin receptor type A (Rattus norvegicus, UniProt P30551); assay: Evaluated in vitro for Cholecystokinin type A receptor affinity by measuring its ability to displace tritiated CCK-8S bound on rat pancreas Cholecystokinin type A receptor
T1 sequence (P30551 whole entry): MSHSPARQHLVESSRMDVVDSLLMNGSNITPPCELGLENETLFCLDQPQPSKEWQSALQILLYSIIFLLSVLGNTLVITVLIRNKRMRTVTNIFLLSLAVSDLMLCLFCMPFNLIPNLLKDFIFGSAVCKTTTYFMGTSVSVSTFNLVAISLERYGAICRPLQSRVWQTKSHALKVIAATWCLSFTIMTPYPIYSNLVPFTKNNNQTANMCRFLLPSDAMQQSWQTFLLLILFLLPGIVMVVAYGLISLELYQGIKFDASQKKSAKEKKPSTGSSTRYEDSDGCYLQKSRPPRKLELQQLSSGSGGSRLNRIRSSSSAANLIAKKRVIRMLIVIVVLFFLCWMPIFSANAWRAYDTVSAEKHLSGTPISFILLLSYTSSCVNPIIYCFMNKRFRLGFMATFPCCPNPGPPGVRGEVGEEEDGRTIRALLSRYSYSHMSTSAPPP

[2] = organism: Rattus norvegicus; assay: Ratio of CCK-B receptor affinity and CCK-A receptor affinity

`CC(C)CCN1C(=O)C(NC(=O)Nc2ccccc2)C(=O)N(Cc2ccccc2)c2ccccc21` (stereo unspecified) gave a Ki [1] of 66.1 nM and a Ratio [2] of 17.

Work on `O=C(Nc1ccccc1)N[C@@H]1C(=O)N(CC23CC4CC(CC(C4)C2)C3)c2ccccc2N(c2ccccc2)C1=O` (single isomer, unassigned; (+)) yielded a Ki [1] of 1120 nM.

Molecule `CC(C)CCN1C(=O)C(NC(=O)Oc2cccc(N(C)C)c2)C(=O)N(CC23CC4CC(CC(C4)C2)C3)c2ccccc21` (stereo unspecified) has a Ki [1] of 1580 nM and a Ratio [2] of 209.

With `CC(C)CCN1C(=O)C(NC(=O)Nc2cccc(N(C)C)c2)C(=O)N(CCC(C)C)c2ccccc21` the Ki [1] was 83.2 nM and the Ratio [2] was 32.

`CC(C)CCN1C(=O)C(NC(=O)Oc2cccc(N(C)C)c2)C(=O)N(CCC(C)C)c2ccccc21` gave a Ki [1] of 794 nM and a Ratio [2] of 28.

`O=C(Nc1ccccc1)NC1C(=O)N(CC23CC4CC(CC(C4)C2)C3)c2ccccc2N(C2CCCCC2)C1=O` (stereo unspecified) showed a Ki [1] of 562 nM and a Ratio [2] of 234.

For `CC(C)CCN1C(=O)C(NC(=O)Oc2ccccc2)C(=O)N(CC23CC4CC(CC(C4)C2)C3)c2ccccc21` (stereo unspecified), the Ki [1] was 1410 nM and the Ratio [2] was 42.

For `O=C(Nc1ccccc1)NC1C(=O)N(CC23CC4CC(CC(C4)C2)C3)c2ccccc2N(CC23CC4CC(CC(C4)C2)C3)C1=O` (stereo unspecified), the Ki [1] was 2000 nM and the Ratio [2] was 58.

For `CC(C)CCN1C(=O)C(NC(=O)Nc2ccccc2)C(=O)N(CC23CC4CC(CC(C4)C2)C3)c2ccccc21` (stereo unspecified), the Ki [1] was 288 nM and the Ratio [2] was 209.

`CC(C)CCN1C(=O)C(NC(=O)Nc2ccccc2)C(=O)N(CCC(C)C)c2ccccc21` showed a Ki [1] of 61.7 nM and a Ratio [2] of 26.

`CC(CC1CCCC1)N1C(=O)C(NC(=O)Nc2ccccc2)C(=O)N(C(C)CC2CCCC2)c2ccccc21` (stereo unspecified) was tested, and the Ki [1] was 229 nM.

With `O=C(Nc1cccc(Cl)c1)NC1C(=O)N(CC23CC4CC(CC(C4)C2)C3)c2ccccc2N(C2CCCCC2)C1=O` (stereo unspecified) the Ki [1] was 240 nM and the Ratio [2] was 22.

In the case of `O=C(NC1C(=O)N(CC23CC4CC(CC(C4)C2)C3)c2ccccc2N(C2CCCCC2)C1=O)Oc1ccccc1` (stereo unspecified), the Ki [1] is reported as 1100 nM and the Ratio [2] is reported as 26.

`CC(C)CCN1C(=O)C(NC(=O)Nc2cccc(N(C)C)c2)C(=O)N(CC23CC4CC(CC(C4)C2)C3)c2ccccc21` (stereo unspecified) showed a Ki [1] of 955 nM and a Ratio [2] of 170.
